Experimental data taken from patent US5935597A, “Drug delivery devices and methods for treatment of viral and microbial infections and wasting syndromes” (Cryopreservation Technologies CC, priority 1995, dated 1999).

Tests used:
[1] = cited from earlier work
[2] = Absorption of liquid DMF through human skin; type: in vivo; settings: two patches of diameter 9 cm, 127 cm^2 skin
Method: For transdermal administration of a polar compound, the rate of absorption is determined by the skin of the subject. […] Accordingly, the desired rate of absorption may be achieved by controlling the surface area of the skin exposed to the drug, as by determining the area of each patch and the number of patches applied to the skin.

[3] = Example 8 pilot study: peak plasma DMF level (GC/MS); type: in vivo; settings: human, topical or ocular
Method: (§1) A pilot study was conducted to evaluate the efficacy of transdermal DMF in the treatment of patients infected with HIV. Informed consent was obtained from each patient. Seropositive status was verified by Western blot using a commercial kit for detecting antibodies to p24 (Abbott Diagnostics) and the presence of HIV-1 was documented by quantitative PCR using a commercial kit (Roche Amplicor).
Operational parameters were as follows: GC temperature program: 60° C. for 1 min. followed by a temperature gradient of 9.4° C./min. for 20 min. MS ionization method: electron impact; mass range: 40-80 mass units; 1 scan/sec; peak threshold: 3 counts/sec; background mass: 69 mass units. A stock solution of dimethylacetamide was used as an internal standard. All samples were extracted with an organic solvent containing the internal standard, allowed to precipitate for 30 min. in a refrigerator, and centrifuged at 3000×g for 5 min. before transfer to GC vials for injection.
(§2) Dermal patches 9 cm in diameter were used within 12 hours of manufacture. […] The patches were visually inspected to verify the absence of leakage and were weighed on an analytical balance to verify less than 10% deviation from a total mass of 8.153 g. The patches were applied to the skin of the forearm and secured with Elastoplast™ bandages. Either one or two patches were used for the initial dose, as determined from the predicted skin transfer rate of 9.4 mg/cm^2 /hr and the patient's body weight.
A staged dose of DMF was used, with two-hourly blood and urine sampling to determine peak plasma DMF levels. […] Initial evaluation included daily determination of: […]

[4] = Example 8 pilot study: adverse effects and liver enzymes; type: in vivo, human
Method: as §1, §2
A staged dose of DMF was used, with two-hourly blood and urine sampling to determine peak plasma DMF levels. […] Initial evaluation included daily determination of:
b) serum urea, creatinine, glucose, sodium, potassium, ALT, AST, alkaline phosphatase and total bilirubin;

SMILES: CN(C)C=O [DMF, N,N'-dimethylformamide]
- acute toxicity ([1]; dermal, oral and inhalation): low acute dermal, oral and inhalation toxicity
- hepatic toxicity ([1]; in vivo): reversible hepatic damage
- mutagenicity and carcinogenicity ([1]; in vivo): not thought to be a mutagen or a carcinogen
- skin and eye irritation ([1]; in vivo): mild to moderate skin and eye irritant
- skin sensitization ([1]; in vivo): no indication of skin sensitizing properties
- teratogenicity ([1]; in vivo): teratogenic
- absorption rate [2]: about 1.2 g of DMF per hour
- Cmax ([3]; 3750 mg, Patient 6, two patches once weekly, 6 hours, average weekly dose 3.75 g): 67 µg/mL
- Cmax ([3]; 4600 mg, Patient 7, 1 patch, 4 hours, average weekly dose 4.60 g): 100 µg/mL
- Cmax ([3]; 6110 mg, Patient 3, two patches once a week, 8 hours, average weekly dose 6.11 g): 75 µg/mL
- Cmax ([3]; 6240 mg, Patient 8, two patches once weekly, 8 hours, average weekly dose 6.24 g): 130 µg/mL
- Cmax ([3]; 7120 mg, Patient 2, one patch per week, 8 hours, average weekly dose 7.12 g): 125 µg/mL
- Cmax ([3]; 7330 mg, Patient 4, two patches once weekly, 8 hours, average weekly dose 7.33 g): 90 µg/mL
- Cmax ([3]; 8250 mg, Patient 5, two patches weekly, 8 hours, average weekly dose 8.25 g): 110 µg/mL
- Cmax ([3]; 8970 mg, Patient 1, two patches once a week, 8 hours, average weekly dose 8.97 g): 121 µg/mL
- maximum elevation of liver enzymes ([4]; four patients with transient elevation): three
- local skin irritation at the area of application ([4]; most patients, after removal of the patches): mild local skin irritation
- appearance of skin at the application site ([4]; most patients, probably due to intense hydration under the patch): maculopapular appearance
- nausea ([4]; most patients, usually on day three after treatment): mild transient nausea
- patients with transient elevation of liver enzymes ([4]; of 8 patients, in most cases returned to pre-treatment levels before next dose): Four
- blistering ([4]; one case, resolved within 24 hours): slight blistering
- nausea ([4]; one patient): moderate transient nausea
